This passage reports AC26 results from PubChem BioAssay AID624491 (Broad Institute, 2012).

Molecules are shown by their SMILES.

In this assay the test system is D54 ERlucT glycosylation luciferase reporter, luminescence, 24 h. The assay can be described thus: N-linked glycosylation inhibitors, luciferase reporter, dose response, D54 ERlucT cells, luminescence, cherry-picks (AID 624491;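 also: signal gain reflects blocked N-linked glycosylation of a luciferase reporter; actives raise luciferase signal so AC26 marks activators of the reporter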). (A reporter such as luciferase makes a cellular process visible.)

With `CCN(CC)S(=O)(=O)c1cc(NC(=O)Cn2ncc(Cl)c(Cl)c2=O)ccc1C`, the AC26 is 1030 nM.

Turning to `c1cc2c3c(cccc3c1)C(N1CCCCC1)=N2`, the AC26 was 13700 nM.

Consider `CN(C)/N=C/C=C1\CCC/C(=C\c2ccc(F)c(F)c2)C1=O`, for which the AC26 is 966 nM.

With `CC(CCc1ccccc1)NC(=O)c1ccc(NC(=O)c2ccccc2)cc1` (stereo not drawn), the AC26 is 4540 nM.

As to `CNc1ccc(Br)cc(C(=O)/C=C/c2ccc(Cl)cc2Cl)c1=O`, the AC26 is 8890 nM.

For `Cc1ccc(-c2nn3c(C)nnc3c3ccccc23)cc1S(=O)(=O)N1CCN(CCO)CC1`, the AC26 is 3870 nM.

As for `O=c1cc(-c2ccccc2)[nH]c2ccc(F)cc12`, the AC26 was 198 nM.

Regarding `COc1ccc(CCn2c(=N)c(C(=O)NCC3CCCO3)cc3c(=O)n4cccc(C)c4nc32)cc1OC` (stereo not drawn), the AC26 was 652 nM.

Take `COc1cc(-c2nc(-c3ccccc3)c(-c3cccs3)[nH]2)cc(OC)c1O`: the AC26 is 6100 nM.

With `CN1CCc2nc3sc(C#N)c(N)c3c(-c3cccs3)c2C1`, the AC26 is 261 nM.

For the molecule `Cc1ccc(N=Nc2c(N)nn(-c3ccccc3)c2N)cc1`, the AC26 is 602 nM.

On to `Cc1[nH]c2ccc(C(=O)N3CCN(c4cccc(Cl)c4)CC3)cc2c1C`, for which the AC26 is 8650 nM.

As for `CCOc1ccc(Br)cc1C(=O)Nc1ccc(C(=O)NCC(C)C)cc1`, the AC26 was 4090 nM.

With `COc1ccccc1-c1c(C#N)c(N)nc2c1CCc1ccccc1-2`, the AC26 was 592 nM.

For `Cc1ccc(N2C(=O)Nc3ccccc3C2(O)C(=O)N2CCN(c3ccccn3)CC2)cc1C` (stereo not drawn), the AC26 was 330 nM.

Consider `CCOC(=O)c1nnc(-c2ccc(C)cc2)nc1Sc1ccccc1Cl`, for which the AC26 was 6170 nM.

Consider `COc1cc(-c2nnc(SCC3(c4ccc(Br)cc4)OCCO3)o2)cc(OC)c1OC`, for which the AC26 is 210 nM.

Turning to `CCN(CC)c1ccc(/C=C2\C(=O)N(c3nnc(C)c(=O)[nH]3)N=C2C)cc1`, the AC26 was 1420 nM.

As to `O=C(NCCc1ccccc1)C1c2ccccc2C(=O)N1Cc1cccs1` (stereo not drawn), the AC26 is 2690 nM.

Turning to `CN(C)CCNc1ccc2nnn3c4ccc(O)cc4c(=O)c1c23`, the AC26 is 52 nM.

Consider `CCN(CCCNC(=O)CCCOc1cc(=O)n(C)c2ccccc12)Cc1ccccc1`, for which the AC26 was 3420 nM.

For the molecule `COc1ccc2c(c1)C(=O)N1[C@H]3c4cc(C)ccc4OC[C@@H]3[C@H](c3ccccc3)[C@]1(C)C(=O)N2`, the AC26 was 358 nM.

With `COc1ccc(/C=C/C(=O)Oc2cccc(/C=N/NC(=O)COc3c(C)cccc3C)c2)cc1`, the AC26 is 4770 nM.

As for `O=S(=O)([N-]c1nc2ccccc2nc1-n1cc[n+](Cc2ccccc2)c1)c1ccc(Br)cc1`, the AC26 is 236 nM.

With `Cc1ccnc2nc(C(=O)Nc3cc(Cl)ccc3N3CCOCC3)nn12`, the AC26 was 659 nM.

On to `Cc1cccc(NC(=O)c2cnn3ccccc23)c1C`, for which the AC26 is 9570 nM.

Turning to `CC(=O)c1ccc(Oc2cc(C)nc(-n3nc(C)cc3C)n2)cc1`, the AC26 was 726 nM.

As for `COCCNC(=O)c1cc(-c2ccccc2OC)on1`, the AC26 was 9620 nM.

With `COc1ccc(C(=O)Nc2ccc3[nH]c(-c4cccc(OC)c4)cc(=O)c3c2)cc1`, the AC26 was 330 nM.

Take `CCCNC(=O)c1cc(-c2ccco2)on1`: the AC26 was 3780 nM.

For the molecule `COc1cc2c(cc1OC)-c1c3c(cc4c1[C@@H](C2)N(C)CC4)OCO3`, the AC26 is 17600 nM.

As for `COc1ccc(Cl)cc1NC(=O)CN(C)CC(=O)Nc1cc(OC)c(OC)c(OC)c1`, the AC26 was 10200 nM.

`C/C(=N\O)C(=O)C(CN1CCCCC1)CN1CCCCC1`: the AC26 is 1500 nM.

Consider `CCN(CC)CCNc1nc2cc(OC)c(OC)cc2c2nc(-c3ccccc3)nn12`, for which the AC26 is 1860 nM.

Consider `COc1ccc(-c2nnc(SCC(=O)Nc3ncc(C)s3)n2-c2ccccc2)cc1OC`, for which the AC26 is 1050 nM.

Consider `COc1cc(C(=O)N/N=C/c2cc([N+](=O)[O-])cs2)cc(OC)c1OC`, for which the AC26 was 349 nM.

As for `COc1cc(C2C(C#N)=C(N)Oc3cc(O)ccc32)cc(OC)c1OC` (stereo not drawn), the AC26 is 1020 nM.

As for `COc1ccc(S(=O)(=O)Nc2ccc3c(c2)n(C)c(=O)n3C)cc1C`, the AC26 is 9910 nM.
